Tested on: general heterotrophic bacteria (GHB)
Conditions: iron sulphide present; same level of THPS as the control

tetrakis (hydroxymethyl) phosphonium sulphate [THPS]
bacterial kill (reduction in colony forming units per ml) versus control sample without iron sulphide: bacterial kill is still achieved

— US20200032125A1, “COMBINED USES OF A PHOSPHOROUS COMPOUND FOR IRON SULPHIDE DISSOLUTION AND BACTERIAL CONTROL” (RHODIA OPERATIONS, priority 2016, published 2020)
